A word on the inhibition: it is the share of the control response that was lost under treatment.

The subject of the test is PMA-induced release of endogenous IL-6R from human U-937 cells. The experiment in a line: ELISA-based IL-6R release assay, PMA-induced, U-937 cells. In kind it is cell-based. The settings on record: U-937, 1 h, PMA 62.5 ng/ml, Batimastat at 10 μM. How it is done: In brief, on day 1, Nunc black MaxiSorp® 96-well plates (Thermo Fisher Scientific, USA) were coated overnight with 100 μl per well of mouse anti-human IL-6R capture antibody (provided as part of the DuoSet ELISA kit) at 2 μg/ml TBS at 4° C. On day 2, the capture antibody solution was removed and MaxiSorp® plates were blocked with 300 μl per well of TBS, 1% BSA at room temperature for 1-2 hours. Meanwhile, 80,000 U-937 (European Collection of Authenticated Cell Cultures, UK) cells in 80 μl of normal growth medium were seeded in each well of Greiner CELLSTAR V-bottom 96-well plates (Thermo Fisher Scientific, USA) and pre-incubated with 20 μl per well of standard growth medium supplemented with Batimastat (BB94, Abcam, UK) at 50 μM as positive control (for a final concentration of 10 μM in the resulting 100 μl sample volume), mouse IgG antibody (Thermo Fisher Scientific, USA) at 5 μg/ml as isotype control (for a final […]) at 37° C., 5% CO2 for 30 minutes. In case of stimulation controls, 20 μl of standard growth medium without test articles were added. […] Using an infinite M1000 (Tecan Group, Switzerland) microplate reader, the fluorescence of each well was collected at an excitation wavelength of 435 nm and an emission wavelength of 555 nm. […]
Background: ELISA stands for enzyme-linked immunosorbent assay.

For `CNC(=O)[C@H](Cc1ccccc1)NC(=O)[C@H](CC(C)C)[C@H](CSc1cccs1)C(=O)NO` [Batimastat], the inhibition at 10 µM (murine (m) and chimeric (ch) antibodies and IgG at 3 μg/ml) came to 91.6%; the inhibition at 10 µM (recombinant murine antibodies and IgG at 1 μg/ml) worked out at 86.6%.

Source of the values: patent US20240287172A1, “PROTEIN BINDERS TO IRHOM2 EPITOPES” (SCIRHOM GMBH, priority 2019, published 2024).
